Read-outs that look alike come from different tables or passages of the source.
How the values were obtained:
hemorrhagic shock model = settings: for Exsanguinated/body weight (ml/100 g): exsanguinated volume per 100 g of body weight to maintain blood pressure at 30-35 mmHg
Protocol: In this Example, the effect of hydrogen gas on a hemorrhagic shock model was evaluated according to the test protocol shown in FIG. 1.
With SD rats (male, 250-300 g), an anesthetic drug was intraperitoneally administered to perform general anesthesia. Subsequently, a PE catheter was inserted into the left femoral artery to perform direct arterial pressure monitoring, and further, an exsanguination catheter from the right femoral artery and a left ventricle catheter for cardiac function measurement from the right common artery were each inserted.
The shock phase was initiated with the initiation of exsanguination. Exsanguination was slowly performed over 15 minutes, and for a total of 60 minutes since the initiation of exsanguination, the mean arterial pressure was maintained at 30-35 mmHg.
The resuscitation phase was initiated with the initiation of resuscitation by transfusion. Transfusion resuscitation by four times the exsanguinated volume of saline was performed over 15 minutes. Test gas inhalation (hydrogen group (21% oxygen+1.3% hydrogen) and control group (21% oxygen)) were performed for a total of 3 hours from the initiation of exsanguination to 2 hours after the initiation of resuscitation. In doing so, cardiac function (LVEDP, ±dP/dt) during the same period was also recorded.
The initiation of the observation phase was 2 hours after the initiation of the resuscitation phase, and observation was performed for 4 hours thereafter (6 hours from the initiation of the resuscitation phase). During this period, blood pressure (systolic, diastolic, mean), heart rate, and the like were measured with artificial respiration in room air.
Lactic acid value and blood gas at the initiation point of shock phase (baseline), the initiation point of resuscitation phase (0 minute), the initiation point of observation phase (120 minutes), and the end-of-test timepoint (360 minutes) were each measured and evaluated.

[1] = tested on: rat hemorrhagic shock model; settings: 6 hours after initiation of resuscitation; 1.3% hydrogen+26% oxygen+72.7% nitrogen inhaled 0 to 120 minutes (resuscitation phase only); control 30%
Protocol: In this test, improvement of the survival rate by hydrogen inhalation at the initiation point of resuscitation after shock in rat hemorrhagic shock model was evaluated.
The procedure in SD rats (250-300 g) to exsanguinate so that mean arterial pressure of 30-35 mmHg was maintained for 60 minutes, and then resuscitate with four times the exsanguinated volume of saline over 15 minutes to evaluate the survival rate at 6 hours after initiation of resuscitation was according to [Example 1].
In this test, test gas was given by inhalation as follows.

[2] = change over time after initiation of resuscitation, vs control group
[3] = change over time after initiation of resuscitation, vs control group, throughout the observation period
[4] = electrolyte at 120 minutes, vs control group

[HH] [hydrogen gas]
heart rate (hemorrhagic shock model; after initiation of resuscitation, vs control group): no great difference | pH (hemorrhagic shock model; blood gas at 120 minutes, vs control group, normal value about 7.4): statistically significantly higher | HCO3 (hemorrhagic shock model; blood gas at 120 minutes, vs control group, normal value about 24): statistically significantly higher | BE (base excess) (hemorrhagic shock model; blood gas at 120 minutes, vs control group, normal value about -2): statistically significantly improved | left ventricular end-diastolic pressure (LVEDP) (hemorrhagic shock model; [2]): no statistically significantly difference | negative dP/dt (hemorrhagic shock model; [2]): no statistically significantly difference | positive dP/dt (hemorrhagic shock model; [2]): no statistically significantly difference | diastolic blood pressure (hemorrhagic shock model; [3]): higher value | mean blood pressure (hemorrhagic shock model; [3]): higher value | systolic blood pressure (hemorrhagic shock model; [3]): higher value | K (hemorrhagic shock model; [4]): statistically significantly lower | Na (hemorrhagic shock model; [4]): no statistically significant difference | survival (individuals surviving) (hemorrhagic shock model; end-of-test timepoint at 6 hours after initiation of resuscitation, control 3/10): 8/10 | Exsanguinated/body weight (ml/100 g) (hemorrhagic shock model; 21% oxygen+1.3% hydrogen, N = 15): 2.60±0.40 ml/100 g | Exsanguinated/body weight (ml/100 g) (hemorrhagic shock model; 21% oxygen+1.3% hydrogen, N = 15, listed as H2): 2.60 ± 0.40 ml/100 g | Exsanguinated (hemorrhagic shock model; exsanguinated volume to maintain mean arterial pressure at 30-35 mmHg, 21% oxygen+1.3% hydrogen, N = 15): 7.03 ± 1.15 mL | hemoglobin (Hb) (hemorrhagic shock model; extent of anemia at 120 minutes, vs control group): no statistically significant difference | lactic acid value (hemorrhagic shock model; initiation point of observation phase (120 minutes), vs control group, normal value 1.0 or less): statistically significantly lower | PaCO2 (Partial pressure of carbon dioxide) (hemorrhagic shock model; oxygenation indicator at 120 minutes, vs control group, normal around 40 mmHg): no statistical difference | PaO2 (Partial pressure of oxygen) (hemorrhagic shock model; oxygenation indicator at 120 minutes, vs control group, normal around 100 mmHg): higher values for the control group | survival rate [1]: 50%

From US20190290683A1 (KEIO UNIVERSITY, priority 2016, published 2019)
